Results: patent US11066396B2 (priority 2016, dated 2021)

Legend:
HDAC1 = HDAC1 (Homo sapiens (Human), UniProt Q13547); conditions: read-out: HDAC1 IC50
HDAC8 = HDAC8 (Homo sapiens (Human), UniProt Q9BY41); conditions: read-out: HDAC8 IC50
Sequence of HDAC8 (Q9BY41 whole entry): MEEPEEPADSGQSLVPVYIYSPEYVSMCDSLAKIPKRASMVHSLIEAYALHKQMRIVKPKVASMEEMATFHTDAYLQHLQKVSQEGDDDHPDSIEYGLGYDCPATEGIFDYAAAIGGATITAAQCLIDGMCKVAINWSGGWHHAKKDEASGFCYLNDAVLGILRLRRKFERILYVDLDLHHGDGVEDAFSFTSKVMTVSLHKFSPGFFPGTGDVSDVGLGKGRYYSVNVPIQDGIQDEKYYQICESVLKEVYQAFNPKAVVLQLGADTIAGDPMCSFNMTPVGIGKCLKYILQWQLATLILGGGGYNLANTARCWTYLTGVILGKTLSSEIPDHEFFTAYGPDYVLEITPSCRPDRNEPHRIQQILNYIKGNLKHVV

Sequence of HDAC1 (Q13547 whole entry): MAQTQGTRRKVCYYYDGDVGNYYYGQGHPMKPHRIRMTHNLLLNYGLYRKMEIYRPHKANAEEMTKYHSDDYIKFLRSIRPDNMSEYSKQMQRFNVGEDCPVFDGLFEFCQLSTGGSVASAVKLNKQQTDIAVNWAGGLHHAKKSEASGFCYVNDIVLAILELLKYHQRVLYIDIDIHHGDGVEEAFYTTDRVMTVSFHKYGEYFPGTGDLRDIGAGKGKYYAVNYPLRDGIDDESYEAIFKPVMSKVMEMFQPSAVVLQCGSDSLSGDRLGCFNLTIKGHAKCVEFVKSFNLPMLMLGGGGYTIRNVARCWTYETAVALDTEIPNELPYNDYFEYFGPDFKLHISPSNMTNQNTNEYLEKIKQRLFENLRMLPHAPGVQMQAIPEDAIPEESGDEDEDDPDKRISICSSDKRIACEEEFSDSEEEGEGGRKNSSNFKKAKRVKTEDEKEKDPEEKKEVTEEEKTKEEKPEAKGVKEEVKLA

SMILES	IC50 (HDAC1)	IC50 (HDAC8)
CN(C)c1cccc(COc2cc(-c3noc(C(F)(F)F)n3)ccn2)n1 [Example 101, N,N-dimethyl-6-(((4-(5-(trifluoromethyl)-1,2,4-oxadiazol-3-yl)pyridin-2-yl)oxy)methyl)pyridin-2-amine]	20 µM	17 µM
O=C1CC[C@@H](c2nc3ccccc3o2)N1c1ccc(-c2noc(C(F)(F)F)n2)cc1 [Example 104, (S)-5-(benzo[d]oxazol-2-yl)-1-(4-(5-(trifluoromethyl)-1,2,4-oxadiazol-3-yl)phenyl)pyrrolidin-2-one]	0.12 µM	0.44 µM
Cn1c([C@@H]2CCC(=O)N2c2ccc(-c3noc(C(F)(F)F)n3)cc2F)nc2ccccc21 [Example 107, (S)-1-(2-fluoro-4-(5-(trifluoromethyl)-1,2,4-oxadiazol-3-yl)phenyl)-5-(1-methyl-1H-benzo[d]imidazol-2-yl)pyrrolidin-2-one]	0.3 µM	2.2 µM
CNc1ccccc1NC(=O)[C@@H]1CCC(=O)N1c1ccc(-c2noc(C(F)(F)F)n2)cc1 [Example 109, (S)-N-(2-(methylamino)phenyl)-5-oxo-1-(4-(5-(trifluoromethyl)-1,2,4-oxadiazol-3-yl)phenyl)pyrrolidine-2-carboxamide]	1 µM	2.3 µM
O=C1CC[C@@H](c2nc(-c3cccnc3)no2)N1c1ccc(-c2noc(C(F)(F)F)n2)cc1 [Example 113, (S)-5-(3-(pyridin-3-yl)-1,2,4-oxadiazol-5-yl)-1-(4-(5-(trifluoromethyl)-1,2,4-oxadiazol-3-yl)phenyl)pyrrolidin-2-one]	0.13 µM	0.41 µM
O=C1CC[C@@H](c2nc(-c3ccncc3)no2)N1c1ccc(-c2noc(C(F)(F)F)n2)cc1 [Example 114, (S)-5-(3-(pyridin-4-yl)-1,2,4-oxadiazol-5-yl)-1-(4-(5-(trifluoromethyl)-1,2,4-oxadiazol-3-yl)phenyl)pyrrolidin-2-one]	0.082 µM	0.27 µM
O=C1CCC(c2ccccc2)N1c1ccc(-c2noc(C(F)(F)F)n2)cc1 (stereo not shown) [Example 115, 5-phenyl-1-(4-(5-(trifluoromethyl)-1,2,4-oxadiazol-3-yl)phenyl)pyrrolidin-2-one]	1 µM	0.92 µM
O=C1CCC(c2ccc(Cl)cc2)N1c1ccc(-c2noc(C(F)(F)F)n2)cc1F (stereo not shown) [Example 119, 5-(4-chlorophenyl)-1-(2-fluoro-4-(5-(trifluoromethyl)-1,2,4-oxadiazol-3-yl)phenyl)pyrrolidin-2-one]	0.72 µM	1.3 µM
Cc1noc([C@H]2CCCCN2c2cc(F)c(-c3noc(C(F)(F)F)n3)cc2F)n1 [Example 121, (R)-3-(2,5-difluoro-4-(2-(3-methyl-1,2,4-oxadiazol-5-yl)piperidin-1-yl)phenyl)-5-(trifluoromethyl)-1,2,4-oxadiazole]	26 µM	29 µM
Cc1noc([C@@H]2CCC(=O)N2c2ccc(-c3noc(C(F)(F)F)n3)cc2F)n1 [Example 123, (S)-1-(2-fluoro-4-(5-(trifluoromethyl)-1,2,4-oxadiazol-3-yl)phenyl)-5-(3-methyl-1,2,4-oxadiazol-5-yl)pyrrolidin-2-one]	1 µM	5.2 µM
CC(C)(C)OC(=O)[C@@H]1CCC(=O)N1c1ccc(-c2noc(C(F)(F)F)n2)cc1F [Example 125, tert-butyl (S)-1-(2-fluoro-4-(5-(trifluoromethyl)-1,2,4-oxadiazol-3-yl)phenyl)-5-oxopyrrolidine-2-carboxylate]	0.43 µM	6.2 µM
O=C1CCCC(c2ccccc2)N1c1ccc(-c2noc(C(F)(F)F)n2)cn1 (stereo not shown) [Example 128, 6-phenyl-1-(5-(5-(trifluoromethyl)-1,2,4-oxadiazol-3-yl)pyridin-2-yl)piperidin-2-one]	2.9 µM	5.1 µM
CN1CCN(c2ccc(-c3noc(C(F)(F)F)n3)cn2)[C@@H](c2ccccc2)C1 [Example 134, (S)-3-(6-(4-methyl-2-phenylpiperazin-1-yl)pyridin-3-yl)-5-(trifluoromethyl)-1,2,4-oxadiazole]	0.36 µM	2.1 µM
Cc1cccc(CCOc2cc(-c3noc(C(F)(F)F)n3)ccn2)n1 [Example 139, 3-(2-(2-(6-methylpyridin-2-yl)ethoxy)pyridin-4-yl)-5-(trifluoromethyl)-1,2,4-oxadiazole]	3.4 µM	4.6 µM
FC(F)(F)c1nc(-c2ccc(N3CCOC[C@@H]3c3ccccc3)nc2)no1 [Example 141, (S)-3-phenyl-4-(5-(5-(trifluoromethyl)-1,2,4-oxadiazol-3-yl)pyridin-2-yl)morpholine]	0.35 µM	1.8 µM
FC(F)(F)c1nc(-c2ccc(N3CCOCC3c3cccnc3)nc2)no1 (stereo not shown) [Example 143, 3-(pyridin-3-yl)-4-(5-(5-(trifluoromethyl)-1,2,4-oxadiazol-3-yl)pyridin-2-yl)morpholine]	6.2 µM	2.8 µM
O=C1NCCN(c2ccc(-c3noc(C(F)(F)F)n3)cn2)C1c1cccc(F)c1 (stereo not shown) [Example 153, 3-(3-fluorophenyl)-4-(5-(5-(trifluoromethyl)-1,2,4-oxadiazol-3-yl)pyridin-2-yl)piperazin-2-one]	0.124 µM	0.28 µM
O=C1COC[C@@H](c2ccccc2)N1c1ccc(-c2noc(C(F)(F)F)n2)cc1F [Example 161, (R)-4-(2-fluoro-4-(5-(trifluoromethyl)-1,2,4-oxadiazol-3-yl)phenyl)-5-phenylmorpholin-3-one]	0.39 µM	2.1 µM

SMILES	IC50 (HDAC1)	IC50 (HDAC8)
CN1CC(=O)N(c2ccc(-c3noc(C(F)(F)F)n3)cc2)C(c2ccccc2)C1 (stereo not shown) [Example 162, 4-methyl-6-phenyl-1-(4-(5-(trifluoromethyl)-1,2,4-oxadiazol-3-yl)phenyl)piperazin-2-one]	0.85 µM	1.4 µM
O=C1COC[C@@H](c2ccccc2)N1c1cnc(-c2noc(C(F)(F)F)n2)cn1 [Example 164, (R)-5-phenyl-4-(5-(5-(trifluoromethyl)-1,2,4-oxadiazol-3-yl)pyrazin-2-yl)morpholin-3-one]	2.9 µM	6.1 µM
O=C1COC[C@@H](c2ccccc2)N1c1ccc(-c2noc(C(F)(F)F)n2)nn1 [Example 165, (R)-5-phenyl-4-(6-(5-(trifluoromethyl)-1,2,4-oxadiazol-3-yl)pyridazin-3-yl)morpholin-3-one]	28 µM	21 µM
NC(=O)c1ccccc1NCc1ccc(-c2noc(C(F)(F)F)n2)cn1 [Example 174, 2-(((5-(5-(Trifluoromethyl)-1,2,4-oxadiazol-3-yl)pyridin-2-yl)methyl)amino)benzamide]	0.3 µM	0.7 µM
O=C1CC[C@@H](CO)N1c1ccc(-c2noc(C(F)(F)F)n2)c(F)c1 [Example 188, (S)-1-(3-Fluoro-4-(5-(trifluoromethyl)-1,2,4-oxadiazol-3-yl)phenyl)-5-(hydroxymethyl)pyrrolidin-2-one]	0.38 µM	0.038 µM
O=C1CC[C@@H](CN2CCOCC2)N1c1ccc(-c2noc(C(F)(F)F)n2)c(F)c1 [Example 189, (S)-1-(3-Fluoro-4-(5-(trifluoromethyl)-1,2,4-oxadiazol-3-yl)phenyl)-5-(morpholinomethyl)pyrrolidin-2-one]	15 µM	6.9 µM
FC(F)(F)c1nc(-c2ccnc(OCc3ccno3)c2)no1 [Example 207, 2-(isoxazol-5-ylmethoxy)-4-[5-(trifluoromethyl)-1,2,4-oxadiazol-3-yl]pyridine]	1.5 µM	1.3 µM
FC(F)(F)c1nc(-c2ccnc(OCc3cnn4c3OCCC4)c2)no1 [Example 209, 3-[({4-[5-(trifluoromethyl)-1,2,4-oxadiazol-3-yl]pyridin-2-yl}oxy)methyl]-6,7-dihydro-5H-pyrazolo[5,1-b][1,3]oxazine]	6.8 µM	4.4 µM
Cn1nccc1COc1cc(-c2noc(C(F)(F)F)n2)ccn1 [Example 221, 2-[(1-methyl-1H-pyrazol-5-yl)methoxy]-4-[5-(trifluoromethyl)-1,2,4-oxadiazol-3-yl]pyridine]	2.8 µM	1.6 µM
Cc1nc(COc2cc(-c3noc(C(F)(F)F)n3)ccn2)no1 [Example 225, 2-[(5-methyl-1,2,4-oxadiazol-3-yl)methoxy]-4-[5-(trifluoromethyl)-1,2,4-oxadiazol-3-yl]pyridine]	1.5 µM	0.62 µM
Cn1c(OCc2ccc(-c3noc(C(F)(F)F)n3)c(F)c2)nc2ccccc21 [Example 235, 2-({3-fluoro-4-[5-(trifluoromethyl)-1,2,4-oxadiazol-3-yl]phenyl}methoxy)-1-methyl-1H-benzimidazole]	0.52 µM	0.77 µM
Cn1c(OCc2ccc(-c3noc(C(F)(F)F)n3)c(F)c2)nc2cccnc21 [Example 238, 2-({3-fluoro-4-[5-(trifluoromethyl)-1,2,4-oxadiazol-3-yl]phenyl}methoxy)-3-methyl-3H-imidazo[4,5-b]pyridine]	0.51 µM	1.3 µM
Fc1cc(COc2nc[nH]n2)ccc1-c1noc(C(F)(F)F)n1 [Example 247, 3-(2-fluoro-4-{[(1H-1,2,4-triazol-3-yl)oxy]methyl}phenyl)-5-(trifluoromethyl)-1,2,4-oxadiazole]	5.5 µM	1.4 µM
O=c1ccc2ccc(Br)cc2n1Cc1ccc(-c2noc(C(F)(F)F)n2)cc1 [Example 321, 7-bromo-1-{4-[5-(trifluoromethyl)-1,2,4-oxadiazol-3-yl]benzyl}quinolin-2(1H)-one]	0.21 µM	2.6 µM
Fc1ccc2ccc(OCc3ccc(-c4noc(C(F)(F)F)n4)cn3)nc2c1 [Example 326, 7-fluoro-2-({5-[5-(trifluoromethyl)-1,2,4-oxadiazol-3-yl]pyridin-2-yl}methoxy)quinoline]	35 µM	45 µM
O=C1CCC(c2ccc(-c3noc(C(F)(F)F)n3)cc2)N1c1ccccc1F (stereo not shown) [Example 329]	3.9 µM	7.9 µM
O=C1CCc2cccnc2N1Cc1ccc(-c2noc(C(F)(F)F)n2)cn1 [Example 330, 1-({5-[5-(trifluoromethyl)-1,2,4-oxadiazol-3-yl]pyridin-2-yl}methyl)-3,4-dihydro-1,8-naphthyridin-2(1H)-one]	3.7 µM	18 µM
